Results taken from patent publication US9938258B2 (Karyopharm Therapeutics Inc., priority 2012, dated 2018).
Read-outs that look alike come from different tables or passages of the source.

What was measured:
MS751 cells = assay: MTT cell proliferation assay, MS751; assay type: cell-based, human; conditions: Homo sapiens
Method in brief: (§1)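 Seeding 5,000-10,000 cells/well, overnight attachment; 8 concs, 1 nM–30 μM. MTT ~4 h, formazan solubilized, OD 490 nm. % inhibition vs negative control, mostly duplicate, mean±SE.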

Z138 cells = assay: MTT cell proliferation assay, Z138; assay type: cell-based; conditions: Homo sapiens
Method in brief: as §1

3T3 cells = assay: MTT cell proliferation assay, 3T3; assay type: cell-based, mouse; conditions: Mus musculus
Method in brief: as §1

[1] = MS751, MS751 cells, approximately 64-72 hours incubation, read-out: MTT Assay IC50, MS751
[2] = Z-138, Z138 cells, approximately 64-72 hours incubation, read-out: MTT Assay IC50, Z138
[3] = NIH3T3, 3T3 cells, approximately 64-72 hours incubation, read-out: MTT Assay IC50, 3T3
[4] = MS751, read-out: MTT Assay IC50, MS751
[5] = Z-138, read-out: MTT Assay IC50, Z138
[6] = NIH3T3, read-out: MTT Assay IC50, 3T3

CN1C(=O)c2ccc(-c3cc(Cl)c4c(c3)CC(CNC(=O)/C=C/c3ccc(N)nc3)O4)cc2C1=O (stereo not drawn) [Compound 343, (E)-3-(6-aminopyridin-3-yl)-N-((7-chloro-5-(2-methyl-1,3-dioxoisoindolin-5-yl)-2,3-dihydrobenzofuran-2-yl)methyl)acrylamide]
IC50 (MS751 cells; [1]): 0.1 to 5 µM | IC50 (Z138 cells; [2]): > 30 µM | IC50 (3T3 cells; [3]): < 0.1 µM

Nc1ccc(/C=C/C(=O)NCC2Cc3c(-c4ccccc4C(=O)N4CCOCC4)ccc(Cl)c3O2)cn1 (stereo not drawn) [Compound 344, (E)-3-(6-aminopyridin-3-yl)-N-((7-chloro-4-(2-(morpholine-4-carbonyl)phenyl)-2,3-dihydrobenzofuran-2-yl)methyl)acrylamide]
IC50 (MS751 cells; [1]): < 0.1 µM | IC50 (Z138 cells; [2]): 0.1 to 5 µM | IC50 (3T3 cells; [3]): < 0.1 µM

COc1cc(-c2ccc(C(=O)N3CCOCC3)cc2)cc2c1OC(CNC(=O)/C=C/c1ccc(N)nc1)C2 (stereo not drawn) [Compound 345, (E)-3-(6-aminopyridin-3-yl)-N-((7-methoxy-5-(4-(morpholine-4-carbonyl)phenyl)-2,3-dihydrobenzofuran-2-yl)methyl)acrylamide]
IC50 (MS751 cells; [4]): < 0.1 µM | IC50 (Z138 cells; [5]): 0.1 to 5 µM | IC50 (3T3 cells; [6]): < 0.1 µM

Nc1ccc(/C=C/C(=O)NCC2Cc3cc(-c4ccc(C(=O)N5CCOCC5)cc4)cc(C(F)(F)F)c3O2)cn1 (stereo not drawn) [Compound 346, (E)-3-(6-aminopyridin-3-yl)-N-((5-(4-(morpholine-4-carbonyl)phenyl)-7-(trifluoromethyl)-2,3-dihydrobenzofuran-2-yl)methyl)acrylamide]
IC50 (MS751 cells; [1]): < 0.1 µM | IC50 (Z138 cells; [2]): 0.1 to 5 µM | IC50 (3T3 cells; [3]): < 0.1 µM

Nc1ccc(/C=C/C(=O)NCC2Cc3cc(-c4ccc(C(=O)N5CCOCC5)cc4)cc(O)c3O2)cn1 (stereo not drawn) [Compound 347, (E)-3-(6-aminopyridin-3-yl)-N-((7-hydroxy-5-(4-(morpholine-4-carbonyl)phenyl)-2,3-dihydrobenzofuran-2-yl)methyl)acrylamide]
IC50 (MS751 cells; [1]): 0.1 to 5 µM | IC50 (Z138 cells; [2]): > 30 µM | IC50 (3T3 cells; [3]): 0.1 to 5 µM

Nc1ccc(/C=C/C(=O)NCC2Oc3c(Cl)cc(-c4ccc(C(=O)N5CCOCC5)cc4)cc3C2=O)cn1 (stereo not drawn) [Compound 348, (E)-3-(6-aminopyridin-3-yl)-N-((7-chloro-5-(4-(morpholine-4-carbonyl)phenyl)-3-oxo-2,3-dihydrobenzofuran-2-yl)methyl)acrylamide]
IC50 (MS751 cells; [4]): 0.1 to 5 µM | IC50 (Z138 cells; [5]): 5 to 30 µM | IC50 (3T3 cells; [6]): 0.1 to 5 µM

CC1(CNC(=O)/C=C/c2ccc(N)nc2)Cc2cc(-c3ccc(C(=O)N4CCOCC4)cc3)cc(Cl)c2O1 (stereo not drawn) [Compound 349, (E)-3-(6-aminopyridin-3-yl)-N-((7-chloro-2-methyl-5-(4-(morpholine-4-carbonyl)phenyl)-2,3-dihydrobenzofuran-2-yl)methyl)acrylamide]
IC50 (MS751 cells; [1]): 0.1 to 5 µM | IC50 (Z138 cells; [2]): 0.1 to 5 µM | IC50 (3T3 cells; [3]): < 0.1 µM

Nc1ccc(CNC(=O)/C=C/C2Cc3cc(-c4ccc(S(=O)(=O)N5CCOCC5)cc4)cc(Cl)c3O2)cn1 (stereo not drawn) [Compound 350, (E)-N-((6-aminopyridin-3-yl)methyl)-3-(7-chloro-5-(4-(morpholinosulfonyl)phenyl)-2,3-dihydrobenzofuran-2-yl)acrylamide]
IC50 (MS751 cells; [1]): 0.1 to 5 µM | IC50 (Z138 cells; [2]): > 30 µM | IC50 (3T3 cells; [3]): 0.1 to 5 µM

Nc1ccc(CNC(=O)/C=C/C2Cc3cc(-c4ccc(C(=O)N5CC(F)(F)C5)cc4)cc(Cl)c3O2)cn1 (stereo not drawn) [Compound 351, (E)-N-((6-aminopyridin-3-yl)methyl)-3-(7-chloro-5-(4-(3,3-difluoroazetidine-1-carbonyl)phenyl)-2,3-dihydrobenzofuran-2-yl)acrylamide]
IC50 (MS751 cells; [1]): 0.1 to 5 µM | IC50 (Z138 cells; [2]): 0.1 to 5 µM | IC50 (3T3 cells; [3]): 0.1 to 5 µM

Nc1ccc(CNC(=O)/C=C/C2Cc3c(-c4ccc(C(=O)N5CC(F)C5)cc4)ccc(Cl)c3O2)cn1 (stereo not drawn) [Compound 352, (E)-N-((6-aminopyridin-3-yl)methyl)-3-(7-chloro-4-(4-(3-fluoroazetidine-1-carbonyl)phenyl)-2,3-dihydrobenzofuran-2-yl)acrylamide]
IC50 (MS751 cells; [1]): 0.1 to 5 µM | IC50 (Z138 cells; [2]): > 30 µM | IC50 (3T3 cells; [3]): 5 to 30 µM

CCOC(=O)CCOCCOCCC(=O)N1CCN(C(=O)c2ccc(-c3cc(Cl)c4c(c3)CC(CNC(=O)/C=C/c3ccc(N)nc3)O4)cc2)CC1 (stereo not drawn) [Compound 354, (E)-ethyl 3-(2-(3-(4-(4-(2-((3-(6-aminopyridin-3-yl)acrylamido)methyl)-7-chloro-2,3-dihydrobenzofuran-5-yl)benzoyl)piperazin-1-yl)-3-oxopropoxy)ethoxy)propanoate]
IC50 (MS751 cells; [1]): < 0.1 µM | IC50 (Z138 cells; [2]): 5 to 30 µM | IC50 (3T3 cells; [3]): < 0.1 µM

CC(C)(C)c1ccc(-c2ccc(C(=O)N3CCOCC3)cc2)c2c1OC(CNC(=O)/C=C/c1ccc(N)nc1)C2 (stereo not drawn) [Compound 355, (E)-3-(6-aminopyridin-3-yl)-N-((7-(tert-butyl)-4-(4-(morpholine-4-carbonyl)phenyl)-2,3-dihydrobenzofuran-2-yl)methyl)acrylamide]
IC50 (MS751 cells; [1]): > 30 µM | IC50 (Z138 cells; [2]): > 30 µM | IC50 (3T3 cells; [3]): 0.1 to 5 µM

Nc1ccc(CNC(=O)/C=C/C2Cc3cc(-c4cccc(S(=O)(=O)N5CCOCC5)c4)cc(Cl)c3O2)cn1 (stereo not drawn) [Compound 357, (E)-N-((6-aminopyridin-3-yl)methyl)-3-(7-chloro-5-(3-(morpholinosulfonyl)phenyl)-2,3-dihydrobenzofuran-2-yl) acrylamide]
IC50 (MS751 cells; [1]): < 0.1 µM | IC50 (Z138 cells; [2]): 0.1 to 5 µM | IC50 (3T3 cells; [3]): < 0.1 µM

Nc1ccc(CNC(=O)/C=C/C2Cc3cc(-c4ccc(C(=O)N5CC[C@@H](F)C5)cc4)cc(Cl)c3O2)cn1 (stereo partly drawn) [Compound 358, (E)-N-((6-aminopyridin-3-yl)methyl)-3-(7-chloro-5-(4-((R)-3-fluoropyrrolidine-1-carbonyl)phenyl)-2,3-dihydrobenzofuran-2-yl)acrylamide]
IC50 (MS751 cells; [1]): 0.1 to 5 µM | IC50 (Z138 cells; [2]): > 30 µM | IC50 (3T3 cells; [3]): 0.1 to 5 µM

Nc1ccc(CNC(=O)/C=C/C2Cc3cc(-c4ccc(C(=O)N5CC[C@H](F)C5)cc4)cc(Cl)c3O2)cn1 (stereo partly drawn) [Compound 359, (E)-N-((6-Aminopyridin-3-yl)methyl)-3-(7-chloro-5-(4-((S)-3-fluoropyrrolidine-1-carbonyl)phenyl)-2,3-dihydrobenzofuran-2-yl)acrylamide]
IC50 (MS751 cells; [1]): 0.1 to 5 µM | IC50 (Z138 cells; [2]): > 30 µM | IC50 (3T3 cells; [3]): 5 to 30 µM

Nc1ccc(CNC(=O)/C=C/C2Cc3cc(-c4ccccc4S(=O)(=O)N4CCOCC4)cc(Cl)c3O2)cn1 (stereo not drawn) [Compound 360, (E)-N-((6-aminopyridin-3-yl)methyl)-3-(7-chloro-5-(2-(morpholinosulfonyl)phenyl)-2,3-dihydrobenzofuran-2-yl)acrylamide]
IC50 (MS751 cells; [1]): < 0.1 µM | IC50 (Z138 cells; [2]): 0.1 to 5 µM | IC50 (3T3 cells; [3]): < 0.1 µM

Nc1ccc(CNC(=O)/C=C/C2Cc3cc(-c4ccc(C(=O)N5CC(F)C5)cc4)cc(Cl)c3O2)cn1 (stereo not drawn) [Compound 361, (E)-N-((6-Aminopyridin-3-yl)methyl)-3-(7-chloro-5-(4-(3-fluoroazetidine-1-carbonyl)phenyl)-2,3-dihydrobenzofuran-2-yl)acrylamide]
IC50 (MS751 cells; [1]): 0.1 to 5 µM | IC50 (Z138 cells; [2]): 0.1 to 5 µM | IC50 (3T3 cells; [3]): 0.1 to 5 µM

CC1(C)CN(C(=O)c2ccc(-c3cc(Cl)c4c(c3)CC(/C=C/C(=O)NCc3ccc(N)nc3)O4)cc2)C1 (stereo not drawn) [Compound 362, (E)-N-((6-aminopyridin-3-yl)methyl)-3-(7-chloro-5-(4-(3,3-dimethylazetidine-1-carbonyl)phenyl)-2,3-dihydrobenzofuran-2-yl)acrylamide]
IC50 (MS751 cells; [1]): < 0.1 µM | IC50 (Z138 cells; [2]): > 30 µM | IC50 (3T3 cells; [3]): < 0.1 µM

Nc1ccc(CNC(=O)/C=C/C2Cc3cc(-c4ccc(S(=O)(=O)N5CC(F)(F)C5)cc4)cc(Cl)c3O2)cn1 (stereo not drawn) [Compound 363, (E)-N-((6-aminopyridin-3-yl)methyl)-3-(7-chloro-5-(4-(3,3-difluoroazetidin-1-ylsulfonyl)phenyl)-2,3-dihydrobenzofuran-2-yl)acrylamide]
IC50 (MS751 cells; [1]): > 30 µM | IC50 (Z138 cells; [2]): > 30 µM | IC50 (3T3 cells; [3]): 5 to 30 µM

Nc1ccc(CNC(=O)/C=C/C2Cc3c(-c4ccc(S(=O)(=O)N5CCOCC5)cc4)ccc(Cl)c3O2)cn1 (stereo not drawn) [Compound 364, (E)-N-((6-aminopyridin-3-yl)methyl)-3-(7-chloro-4-(4-(morpholinosulfonyl)phenyl)-2,3-dihydrobenzofuran-2-yl)acrylamide]
IC50 (MS751 cells; [1]): 0.1 to 5 µM | IC50 (Z138 cells; [2]): > 30 µM | IC50 (3T3 cells; [3]): 5 to 30 µM

[2H]C1([2H])c2cc(-c3ccc(C(=O)N4CCOCC4)cc3)cc(Cl)c2OC1CNC(=O)/C=C/c1ccc(N)nc1 (stereo not drawn) [Compound 365, (E)-3-(6-aminopyridin-3-yl)-N-((7-chloro-3,3-dideutero-5-(4-(morpholine-4-carbonyl)phenyl)-2,3-dihydrobenzofuran-2-yl)methyl)acrylamide]
IC50 (MS751 cells; [1]): < 0.1 µM | IC50 (Z138 cells; [2]): 0.1 to 5 µM | IC50 (3T3 cells; [3]): < 0.1 µM

CC1(F)CN(C(=O)c2ccc(-c3cc(Cl)c4c(c3)CC(/C=C/C(=O)NCc3ccc(N)nc3)O4)cc2)C1 (stereo not drawn) [Compound 366, (E)-N-((6-aminopyridin-3-yl)methyl)-3-(7-chloro-5-(4-(3-fluoro-3-methylazetidine-1-carbonyl)phenyl)-2,3-dihydrobenzofuran-2-yl)acrylamide]
IC50 (MS751 cells; [1]): > 30 µM | IC50 (Z138 cells; [2]): > 30 µM | IC50 (3T3 cells; [3]): 0.1 to 5 µM

CC1(C)COCCN1C(=O)c1ccc(-c2cc(Cl)c3c(c2)CC(/C=C/C(=O)NCc2ccc(N)nc2)O3)cc1 (stereo not drawn) [Compound 367, (E)-N-((6-aminopyridin-3-yl)methyl)-3-(7-chloro-5-(4-(3,3-dimethylmorpholine-4-carbonyl)phenyl)-2,3-dihydrobenzofuran-2-yl)acrylamide]
IC50 (MS751 cells; [1]): < 0.1 µM | IC50 (Z138 cells; [2]): < 0.1 µM | IC50 (3T3 cells; [3]): 0.1 to 5 µM

CC1(C)COCCN1C(=O)c1ccc(-c2cc(Cl)c3c(c2)CC(/C=C/C(=O)NCc2ccc(N)nc2)O3)nc1 (stereo not drawn) [Compound 368, (E)-N-((6-aminopyridin-3-yl)methyl)-3-(7-chloro-5-(5-(3,3-dimethylmorpholine-4-carbonyl)pyridin-2-yl)-2,3-dihydrobenzofuran-2-yl)acrylamide]
IC50 (MS751 cells; [1]): < 0.1 µM | IC50 (Z138 cells; [2]): < 0.1 µM | IC50 (3T3 cells; [3]): 0.1 to 5 µM
